Measured values published in patent EP0157361A2, “Analysis method and means for detecting esterolytic and or proteolytic enzymes” (MILES INC., priority 1984, dated 1985).
Entries after “also recorded” stand apart in the source; their conditions may differ.

Key:
Format in all cases: biochemical
[1] = system: Leukozyten-Enzyme; assay: Acceleration of cleavage of N-Tosyl-L-alanin-3-hydroxy-5-phenylpyrrolester by leukocytes (photometric, 330 nm); details: 250 µl N-Methylpyrrolidon
Method: (§1) Zu 2.25 ml des betreffenden Puffers fügte man je nach Substrat 50 - 250 µl N-Methylpyrrolidon als Lösungsvermittler und ergänzte das Volumen der Lösung mit Puffer auf 2.5 ml. Dann wurden 5 µl einer Lösung von 5 - 100 mg n-Undecanol in 1 ml N-Methylpyrrolidon sowie 5 µl einer Lösung von 2 mg Natriumdodecylsulfat (SDS) bzw. 4 mg der anderen Detergentien in 1 ml Wasser oder N-Methylpyrrolidon zu der Reaktionsmischung zugegeben. Nach gutem Durchmischen wurden 5 µl einer 10-1 molaren Substratlösung in N-Methylpyrrolidon, Dimethylformamid oder Dimethylsulfoxid in die Reaktionslösung gegeben und nach der Zugabe der Leukozytensuspension der Extinktionsanstieg bei der angegebenen Wellenlänge kontinuierlich verfolgt. Die Spontanhydrolyse des Substrats wird in einem Paralellansatz ohne Leukozytenzugabe anhand des Extinktionsanstiegs bestimmt.
(§2) Für die Bestimmung der Umsetzungsgeschwindigkeit wird der in der Enzymreaktion erhaltene Extinktionsanstieg um den für die Spontanhydrolyse ermittelten Betrag vermindert. Absolutwerte für die Substratspaltung (Mol. Min.^-1) können aus den Extinktionsdifferenzen mit Hilfe der molaren Extinktionskoeffizienten errechnet werden.
Beschleunigung der Spaltung von N-Tosyl-L-alanin-3-hydroxy-5-phenylpyrrolester mit Leukozyten in 0.1 M Tris-(hydroxymethyl)-aminomethan-Salzsäurepuffer (pH 8.8) in Gegenwart von 250 µl N-Methylpyrrolidon durch Zusätze von Aktivatoren und Detergentien.
Beschleunigung der Spaltung von N-Tosyl-L-alanin-3-hydroxy-5-phenylpyrrolester mit Leukozyten in diversen 0.1 M. Puffern (pH 8.4) unter Zusatz von 250 µl N-Methylpyrrolidon und Aktivatoren sowie Detergentien.

[2] = system: Leukozyten-Enzyme; assay: Acceleration of enzymatic cleavage of N-Tosyl-L-alanin-indoxylester by leukocytes (photometric, 360 nm); details: for relative Spaltungsgeschwindigkeit: 0.1 M Tris-HCl buffer pH 8.8, 360 nm; for rel.Geschwindigk.der Enzymreaktion, bezogen auf Decanol (0,125 µl/Test) = 1: 50 µl N-Methylpyrrolidon, SDS 10 µg/Test, Tris-HCl pH 8.8
Method: as §1, §2
Beschleunigende Wirkung von Alkanolen auf die enzymatische Spaltung von N-Tosyl-L-alanin-indoxylester mit Leukozyten in 0.1 M Tris-(hydroxymethyl)-aminomethan-Salzsäure-Puffer pH 8.8 unter Zusatz von SDS bzw. Polylysin mit einem mittleren Molekulargewicht von 14 000 (Messung bei 360 nm).
Konzentrationsabhängigkeit der beschleunigenden Wirkung von n-Undecanol auf die Spaltung von N-Tosyl-L-alanin-indoxylester mit Leukozyten in Gegenwart von 50 µl N-Methylpyrrolidon/Testansatz und 10 µg/Test SDS in 0.1 M Tris-(hydroxymethyl)-aminomethan-Salzsäurepuffer (pH 8.8).

[3] = system: Leukozyten-Enzyme; assay: Acceleration of cleavage of N-Tosyl-L-alanin-5-hydroxy-1,2-benzisothiazolylester by leukocytes (photometric, 325 nm); details: Aktivator 125 µg/Test, Tris-HCl pH 8.4, 100 µl N-Methylpyrrolidon
Method: as §1, §2
Beschleunigung der Spaltung von N-Tosyl-L-alanin-5-hydroxy-1,2-benzisothiazolylester mit Leukozyten in 0.1 M Tris-(hydroxymethyl)-aminomethan-Salzsäurepuffer (pH 8.4) in Gegenwart von 100 µl N-Methylpyrrolidon durch Zusätze von Aktivatoren und Detergentien.

[4] = system: Leukozyten-Enzyme; assay: Activation of leukocyte enzymes, general statement in the description; details: statement in words; compared with Hexanol, Heptanol, Octanol, Nonanol, Decanol, Dodecanol, Tridecanol of EP-A 14 929
Method: as §1, §2

[5] = Detergens Poly-L-Lys (mean MW 14 000) 20 µg/Test
[6] = Aktivator 125 µg/Test, SDS 10 µg/Test, Tris-HCl pH 8.8
[7] = Aktivator 125 µg/Test, Zephirol 20 µg/Test, Tris-HCl pH 8.8
[8] = Puffer Borat 0.1 M pH 8.4, Aktivator 0.125 µl bzw. 125 µg je Test, SDS 10 µg/Test
[9] = Puffer Borat 0.1 M pH 8.4, Aktivator 0.125 µl bzw. 125 µg je Test, no detergent
[10] = Puffer Carbonat-Hydrogencarbonat 0.1 M pH 8.4, Aktivator 0.125 µl bzw. 125 µg je Test, SDS 10 µg/Test
[11] = Puffer Phosphat 0.1 M pH 8.4, Aktivator 0.125 µl bzw. 125 µg je Test, SDS 10 µg/Test
[12] = Puffer Tris 0.1 M pH 8.4, Aktivator 0.125 µl bzw. 125 µg je Test, BDTA 20 µg/Test
[13] = Puffer Tris 0.1 M pH 8.4, Aktivator 0.125 µl bzw. 125 µg je Test, Poly-L-Arg (40000) 20 µg/Test
[14] = Puffer Tris 0.1 M pH 8.4, Aktivator 0.125 µl bzw. 125 µg je Test, SDS 10 µg/Test
[15] = Puffer Tris 0.1 M pH 8.4, Aktivator 0.125 µl bzw. 125 µg je Test, no detergent

Row | Structure (SMILES) | relative Spaltungsgeschwindigkeit [2, 5] | relative Spaltungsgeschwindigkeit ([2]; Detergens SDS 10 µg/Test) | relative Spaltungsgeschwindigkeit ([3]; Poly-L-Lys(14000) 20 µg/Test) | relative Spaltungsgeschwindigkeit ([3]; Poly-L-Orn(30000) 20 µg/Test) | relative Spaltungsgeschwindigkeit ([3]; SDS 10 µg/Test) | relative Spaltungsgeschwindigkeit ([3]; no detergent) | relative Spaltungsgeschwindigkeit [1, 6] | relative Spaltungsgeschwindigkeit [1, 7] | relative Spaltungsgeschwindigkeit [1, 8] | relative Spaltungsgeschwindigkeit [1, 9] | relative Spaltungsgeschwindigkeit [1, 10] | relative Spaltungsgeschwindigkeit [1, 11] | relative Spaltungsgeschwindigkeit [1, 12] | relative Spaltungsgeschwindigkeit [1, 13] | relative Spaltungsgeschwindigkeit [1, 14] | relative Spaltungsgeschwindigkeit [1, 15] | also measured
1 | CCCCCCCCCCCCOS(=O)(=O)O [SDS, Natriumdodecylsulfat] |  |  |  |  |  |  |  |  |  |  |  |  |  |  |  |  | relative Spaltungsgeschwindigkeit ([1]; Puffer Borat 0.1 M pH 8.4, no activator, detergent SDS alone 10 µg/Test): 2.8; relative Spaltungsgeschwindigkeit ([1]; Puffer Tris 0.1 M pH 8.4, no activator, detergent SDS alone 10 µg/Test): 0.8
2 | CCCCCCCCCO [n-Nonanol] |  |  |  |  |  |  |  |  | 3.0 |  |  |  |  |  | 0.6 |  | 

Now from value to compound, other results behind:

Row | relative Spaltungsgeschwindigkeit [2, 5] | relative Spaltungsgeschwindigkeit ([2]; Detergens SDS 10 µg/Test) | relative Spaltungsgeschwindigkeit ([3]; Poly-L-Lys(14000) 20 µg/Test) | relative Spaltungsgeschwindigkeit ([3]; Poly-L-Orn(30000) 20 µg/Test) | relative Spaltungsgeschwindigkeit ([3]; SDS 10 µg/Test) | relative Spaltungsgeschwindigkeit ([3]; no detergent) | relative Spaltungsgeschwindigkeit [1, 6] | relative Spaltungsgeschwindigkeit [1, 7] | relative Spaltungsgeschwindigkeit [1, 8] | relative Spaltungsgeschwindigkeit [1, 9] | relative Spaltungsgeschwindigkeit [1, 10] | relative Spaltungsgeschwindigkeit [1, 11] | relative Spaltungsgeschwindigkeit [1, 12] | relative Spaltungsgeschwindigkeit [1, 13] | relative Spaltungsgeschwindigkeit [1, 14] | relative Spaltungsgeschwindigkeit [1, 15] | Structure (SMILES) | also measured
3 | 3.2 | 1 | 4.25 | 3.8 | 1.0 | 1.9 | 1.0 | 1.27 | 9.0 | 4.9 | 5.6 | 12.0 | 1.05 | 3.7 | 1 | 0.9 | CCCCCCCCCCO [n-Decanol] | relative Spaltungsgeschwindigkeit ([1]; Puffer Borat 0.1 M pH 8.4, Aktivator 0.125 µl bzw. 125 µg je Test, Poly-DL-Lys(37000) 20 µg/Test): 3.15
4 |  | 0.55 |  |  |  |  |  |  | 9.0 |  |  |  |  |  |  |  | CCCCCCCCCCCCO [n-Dodecanol] | 
5 |  | 0.75 |  |  |  |  |  |  |  |  |  |  |  |  |  |  | CCCCCCCCCCCCCO [n-Tridecanol] | 
6 | 6.5 | 1.85 | 8.2 | 7.4 | 2.5 | 3.1 | 3.3 | 2.6 | 15.2 | 5.6 | 6.6 | 17.3 | 3.55 | 6.55 | 2.1 | 1.7 | CCCCCCCCCCCO [n-Undecanol] | Aktivierung der Leukozyten-Enzyme [4]: stark aktiviert; also recorded: alle vorgenannten Alkohole in der Aktivierung der Leukozyten- Enzyme übertrifft; rel.Geschwindigk.der Enzymreaktion, bezogen auf Decanol (0,125 µl/Test) = 1 ([2]; 0,2 µl Undecanol in test solution): 2,1; rel.Geschwindigk.der Enzymreaktion, bezogen auf Decanol (0,125 µl/Test) = 1 ([2]; 0,5 µl Undecanol in test solution): 3,1; rel.Geschwindigk.der Enzymreaktion, bezogen auf Decanol (0,125 µl/Test) = 1 ([2]; 0,25 µl Undecanol in test solution): 3,2; rel.Geschwindigk.der Enzymreaktion, bezogen auf Decanol (0,125 µl/Test) = 1 ([2]; 0,025 µl Undecanol in test solution): 0,65; rel.Geschwindigk.der Enzymreaktion, bezogen auf Decanol (0,125 µl/Test) = 1 ([2]; 0,075 µl Undecanol in test solution): 1,5; rel.Geschwindigk.der Enzymreaktion, bezogen auf Decanol (0,125 µl/Test) = 1 ([2]; 0,125 µl Undecanol in test solution): 1,75
